According to patent US12059467B2, “Low-toxicity and high-efficiency orthoester mixture pharmaceutical adjuvant, preparation method thereof, and topical sustained release drug delivery formulation including same” (ANHUI UNIVERSITY, priority 2022, dated 2024):
Entries after “also recorded” stand apart in the source; their conditions may differ.

How the values were obtained:
Hypertension model rats = test: Antihypertensive effect in hypertension model rats; settings: 40 mg/kg based on an irbesartan content; irbesartan orally, E-1′-Irbe subcutaneous injection
Method: Hypertension model rats were treated with irbesartan and the prepared irbesartan injection (E-1′-Irbe) at a dose of 40 mg/kg based on an irbesartan content, where the irbesartan was administered orally and the irbesartan injection (E-1′-Irbe) was administered through subcutaneous injection. A drug concentration in blood and a blood pressure level were detected at a preset time point.

pain model rats = test: Analgesic effect in pain model rats; assay type: in vivo; settings: subcutaneous, 200 mg/kg based on a mepivacaine content
Method: Mepivacaine and the prepared mepivacaine injection (E-A′-Mep) each were subcutaneously injected into different pain model rats at a dose of 200 mg/kg based on a mepivacaine content. A time required for a rat to have a normal response to deep pain and electric stimulation and a time required for a rat to return from a motor weakness state to a normal state were then recorded; and when half of rats returned to a normal state, the test was stopped.

mice [1] = test: Acute toxicity test (LD50, MTD); assay type: in vivo
Method: With OE-2 in the patent application 202111500943.7 as a reference formulation, the OE-1′ obtained in Example 1 was subjected to an acute toxicity test, and experimental steps were as follows:
OE-2 and 0E-1′ each were administered to different mice at a time through intragastric administration, subcutaneous injection, and intraperitoneal injection with a dose gradient from 1 mg/kg to 50,000 mg/kg; poisoning characteristics of mice within 24 h were observed, and a mortality rate was counted; and an accurate LD50 value was calculated according to the probability unit method and the karber's method, and finally experimental groups were compared in terms of acute toxicity.
Note: The larger the LD50 value in the experimental group, the smaller the acute toxicity.

[2] = system: red blood cell (RBC) suspension; test: Hemolysis test; assay type: cell-based; settings: 3 mg/mL to 15 mg/mL, 37° C., 3 h; hemolysis rate lower than 5% means no hemolytic effect
Method: Preparation of test samples: negative control: 2.5 mL of a red blood cell (RBC) suspension+2.5 mL of a 0.9% sodium chloride injection; positive control: 2.5 mL of an RBC suspension+2.5 mL of distilled water; and experimental group: 2.5 mL of an RBC suspension+2.2 mL of a 0.9% sodium chloride injection+0.3 mL of a formulation to be tested (3 mg/mL to 15 mg/mL).
Each sample was incubated in a 37° C. thermostatic water bath for 3 h and then centrifuged (3,000 r/min, 5 min) to obtain a supernatant, the supernatant was allowed to stand at room temperature for 30 min, and the absorbance of the sample was determined at 540 nm by a microplate reader; and the influence of plasma contents was eliminated with the absorbance of the negative control group, and then a hemolysis rate (%) of the experimental group could be calculated according to the following formula: HL%=At/Apc×100%, where At represents an absorbance value of a test sample and APC represents an absorbance value of the positive control. When a hemolysis rate is lower than 5%, it means that the formulation of the experimental group has no hemolytic effect at a corresponding concentration.

mice [3] = test: Cardiovascular system-associated safety evaluation; assay type: in vivo; settings: subcutaneous, 15,000 mg/kg, measured daily in the following week
Method: Different formulations each were subcutaneously injected into different mice at a dose of 15,000 mg/kg, and a blood pressure and a heart rate of mice in each group were measured daily by […] in the following week.

mice [4] = test: Respiratory system and blood oxygen saturation tests; assay type: in vivo; settings: subcutaneous, 15,000 mg/kg, measured daily in the following week
Method: Different formulations each were subcutaneously injected into different mice at a dose of 15,000 mg/kg, and a breathing rate and a blood oxygen saturation of mice in each group were measured daily by a small animal non-invasive pulse oximeter in the following week.

[5] = Alcohol metabolite biodistribution test; assay type: in vivo, mice; settings: subcutaneous, 15,000 mg/kg; urine, blood, heart, liver, spleen, lung, kidney; gas chromatograph
Method: Preparation of standard solutions: an appropriate amount of methanol or ethanol was accurately weighed and prepared with water into a 10.0 mg/mL standard solution as a stock solution, and the stock solution was further diluted into aqueous solutions with concentrations of 0.10 mg/mL, 0.20 mg/mL, 0.50 mg/mL, 0.80 mg/mL, 1.00 mg/mL, 2.00 mg/mL, and 3.00 mg/mL, respectively. Preparation of an internal standard solution: an appropriate amount of tert-butyl alcohol (TBA) was accurately weighed and prepared with water into a 5.0 mg/mL TBA stock solution, the TBA stock solution was diluted with water to obtain a 40.0 μg/mL TBA working solution, and the TBA working solution was refrigerated and stored in a closed manner.
Different formulations each were subcutaneously injected into different mice at a dose of 15,000 mg/kg, and then the urine, blood, heart, liver, spleen, lung, and kidney were collected from the mice at different time points. 0.10 mL of each of the standard solutions, urine, blood, and tissue extracts was taken and mixed with 0.50 mL of a 40.0 μg/mL TBA working solution, and a resulting mixture was tested by a gas chromatograph. A standard curve with a linear regression coefficient of 0.999 or higher was plotted with results of the standard solutions, and then a methanol or ethanol content in each sample was calculated. […]

mice [6] = test: Chronic toxicity test; assay type: in vivo; settings: subcutaneous, 15,000 mg/kg, 6 months
Method: Different formulations each were subcutaneously injected into different mice at a dose of 15,000 mg/kg, and the continuous behavioral observation, routine blood test, biochemical index test, and organ weight measurement were conducted for 6 months.

mice [7] = test: Antibody-producing effect (IgG) in mice; assay type: in vivo; settings: subcutaneous, 50 mg/kg based on an ovalbumin content on day 1 and day 15
Method: Ovalbumin and the prepared ovalbumin injection (E-C′-Ova) were subcutaneously injected into different mice at a dose of 50 mg/kg based on an ovalbumin content on day 1 and day 15, and an IgG concentration was detected.

**Q.** Which blood pressure level (Hypertension model rats) does the source give for `CCCCC1=NC2(CCCC2)C(=O)N1Cc1ccc(-c2ccccc2-c2nnn[nH]2)cc1` [irbesartan] here?
**A.** can reduce a blood pressure; also recorded: rebounds rapidly

**Q.** What about the “drug concentration in blood” value (Hypertension model rats) of the same molecule?
**A.** decreases rapidly

**Q.** For `Cc1cccc(C)c1NC(=O)C1CCCCN1C` (centres unmarked) [Normal saline (NS) + mepivacaine, mepivacaine], which “Time required for half of rats to have a normal response, Deep pain” value (pain model rats) is on record?
**A.** 60 min

**Q.** What about the “Time required for half of rats to have a normal response, Electric stimulation” value (pain model rats) of the same molecule?
**A.** 60 min

**Q.** What about the “Time required for half of rats to have a normal response, Motor weakness” value (pain model rats) of the same molecule?
**A.** 60 min

**Q.** For `CCOC1OCC(COCC2COC(OCC)O2)O1` (centres unmarked) [OE-1′, 4,4′-(Oxybis(Methylene))Bis(2-Ethoxy-1,3-Dioxolane)], which “tolerance dose of mice (MTD)” value (mice [1]; mouse, in vivo) is on record?
**A.** higher than a tolerance dose of mice for OE-2

**Q.** What about the LD50 value (mice [1]; single administration, intragastric, subcutaneous, intraperitoneal, mortality within 24 h) of the same molecule?
**A.** significantly higher than an LD50 value of OE-2

**Q.** What about the “hemolytic effect (hemolysis rate)” value [2] of the same molecule?
**A.** does not lead to a hemolytic effect

**Q.** What about the “cardiovascular function (blood pressure and heart rate)” value (mice [3]) of the same molecule?
**A.** at a normal level

**Q.** What about the blood oxygen saturation (mice [4]) of the same molecule?
**A.** at normal levels

**Q.** What about the breathing rate (mice [4]) of the same molecule?
**A.** at normal levels

**Q.** And the “methanol or ethanol content in each sample” value [5]?
**A.** a trace amount of ethanol is detected in each sample

**Q.** And the organ mass (mice [6])?
**A.** significantly higher than an organ mass of mice in the OE-2 group

B1: ovalbumin (protein, UniProt P01012 2-386, looked up)
Ovalbumin: GSIGAASMEFCFDVFKELKVHHANENIFYCPIAIMSALAMVYLGAKDSTRTQINKVVRFDKLPGFGDSIEAQCGTSVNVHSSLRDILNQITKPNDVYSFSLASRLYAEERYPILPEYLQCVKELYRGGLEPINFQTAADQARELINSWVESQTNGIIRNVLQPSSVDSQTAMVLVNAIVFKGLWEKAFKDEDTQAMPFRVTEQESKPVQMMYQIGLFRVASMASEKMKILELPFASGTMSMLVLLPDEVSGLEQLESIINFEKLTEWTSSNVMEERKIKVYLPRMKMEEKYNLTSVLMAMGITDVFSSSANLSGISSAESLKISQAVHAAHAEINEAGREVVGSAEAGVDAASVSEEFRADHPFLFCIKHIATNAVLFFGRCVSP
notes: ovalbumin alone, injected subcutaneously as comparator
**Q.** With B1 as the molecule, how does the IgG concentration (mice [7]) read?
**A.** decreases rapidly
